Assay results: ChEMBL document CHEMBL5370584, “Reprogramming Energy Metabolism with Synthesized PDK Inhibitors Based on Dichloroacetate Derivatives and Targeted Delivery Systems for Enhanced Cancer Therapy” (J Med Chem, 2023)
pIC50: −log10 of the molar value. Activity calls are given as the source filed them. No cut-off for these calls is given here.

Legend:
[1] = test system: 4T1; test: Downregulation of c-myc expression in mouse 4T1 cells at 4 uM incubated for 24 hrs; type: functional, cell-based
[2] = test system: 4T1; test: Induction of apoptosis in mouse 4T1 cells assessed as activation of caspase 9 at 2 uM incubated for 12 to 18 hrs; type: functional, cell-based; details: time 12-18 hrs
[3] = test system: 4T1; test: Inhibition of glycolysis in mouse 4T1 cell lysates assessed as reduction in lactate production at 1 to 4 uM measured after 6 to 12 hrs; type: functional, cell-based; details: dose 1-4 µM, time 6-12 hrs
[4] = test system: 4T1; test: Induction of mitochondrial respiration in mouse 4T1 cells assessed as upregulation of intracellular ATP level at 2 uM incubated for 12 to 24 hrs […]; type: functional, cell-based; details: time 12-24 hrs
[5] = Toxicity in BALB/c mouse assessed as effect on UREA level at 0.15 to 1.5 mg/kg measured upto 16 days; type: organism-based; details: in vivo, 384 h, dose 0.15-1.5 mg/kg, time < 16 day
[6] = test system: HeLa; test: Antiproliferative activity against human HeLa cells assessed as inhibition of cell growth incubated for 24 hrs by MTT assay; type: functional, cell-based
[7] = Toxicity in BALB/c mouse assessed as effect on heart at 0.15 to 1.5 mg/kg measured upto 16 days; type: organism-based; details: in vivo, 384 h, dose 0.15-1.5 mg/kg, time < 16 day
[8] = Toxicity in BALB/c mouse assessed as effect on AST level at 0.15 to 1.5 mg/kg measured upto 16 days; type: organism-based; details: in vivo, 384 h, dose 0.15-1.5 mg/kg, time < 16 day
[9] = test system: 4T1; test: Inhibition of glycolysis in mouse 4T1 cell lysates assessed as reduction in extracellular acidification rate at 2 to 6 uM measured after 6 hrs; type: functional, cell-based; details: dose 2-6 µM
[10] = test system: 4T1; test: Induction of apoptosis in mouse 4T1 cells assessed as increase in GSH content at 1 to 2 uM measured after 12 to 24 hrs; type: functional, cell-based; details: dose 1-2 µM, time 12-24 hrs
[11] = biological target: [Pyruvate dehydrogenase (acetyl-transferring)] kinase isozyme 1, mitochondrial (Mus musculus) (UniProt Q8BFP9); test: Inhibition of PDK1 transcription in mouse 4T1 cells at 4 uM incubated for 24 hrs by qPCR analysis; type: cell-based
[12] = test system: 4T1; test: Induction of ROS production in mouse 4T1 cells by confocal scanning microscopy based analysis; type: functional, cell-based
[13] = test system: 4T1; test: Induction of mitochondrial respiration in mouse 4T1 cells assessed as increase in basal respiration at 2 to 6 uM incubated for 6 hrs by seahorse XF96 flux analyzer; type: functional, cell-based; details: dose 2-6 µM
[14] = test system: 4T1; test: Recovery in mitochondrial function in mouse 4T1 cells assessed as increase in OCR/ECAR ratio; type: functional, cell-based; details: dose 2-6 µM
[15] = test system: 4T1; test: Antiproliferative activity against mouse 4T1 cells assessed as inhibition of cell growth incubated for 24 hrs by MTT assay; type: functional, cell-based; details: 4T1, 24 h
[16] = Antiproliferative activity against rat PBMC cells assessed as inhibition of cell growth at 5 uM incubated for 24 hrs by MTT assay; type: toxicity, cell-based
[17] = test system: COS-7; test: Effect on PDHA1 expression in African monkey COS7 cells at 12 uM measured after 24 hrs; type: functional, cell-based; details: Chlorocebus aethiops

[Pyruvate dehydrogenase (acetyl-transferring)] kinase isozyme 1, mitochondrial (Mus musculus), sequence (Q8BFP9 whole entry): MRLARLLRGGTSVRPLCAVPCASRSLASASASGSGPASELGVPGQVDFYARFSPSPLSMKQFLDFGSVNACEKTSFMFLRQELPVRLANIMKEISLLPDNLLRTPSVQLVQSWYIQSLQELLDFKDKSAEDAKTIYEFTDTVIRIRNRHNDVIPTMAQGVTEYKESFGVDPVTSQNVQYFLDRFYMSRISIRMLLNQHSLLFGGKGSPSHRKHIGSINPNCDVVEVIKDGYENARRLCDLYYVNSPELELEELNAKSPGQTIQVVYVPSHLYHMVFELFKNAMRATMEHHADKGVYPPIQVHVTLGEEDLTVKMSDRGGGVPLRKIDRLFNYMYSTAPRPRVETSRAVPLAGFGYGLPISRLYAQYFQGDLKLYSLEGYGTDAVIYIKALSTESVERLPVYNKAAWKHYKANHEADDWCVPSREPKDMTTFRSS

SMILES: O=C(CCCCCNC(=O)C(Cl)Cl)Nc1ccc([As]2SCCCS2)cc1
- Activity [1]: Active
- Activity [2]: Active
- inhibition [3]: Active
- Activity [4]: Active
- Activity [5]: Non-Toxic
- pIC50 [6]: 5.60
- Activity [7]: Non-Toxic
- Activity [8]: Non-Toxic
- inhibition [9]: Active
- Activity [10]: Active
- inhibition [11]: Active
- Activity [12]: Active
- Activity [13]: Active
- Activity [14]: Dose-Dependent Effect
- pIC50 [15]: 5.72
- Activity [16]: Non-Toxic
- Activity [17]: inactive
